Measured values reported in patent US7629332B2, “Nitrophenyl mustard and nitrophenylaziridine alcohols and their corresponding phosphates and their use as targeted cytotoxic agents” (Auckland Uniservices Limited, priority 2003, dated 2009).

How the values were obtained:
A549 (P450R+ve) = assay: Cell proliferation (sulphorhodamine B) IC50, P450R-transfected A549 human lung cells, anoxia vs 20% O2; assay type: cell-based; conditions: for A549 (P450R+ve) 20% O2/anoxia IC50 Ratio: 4 h, sensitivity ratio for hypoxia; for IC50: A549, 4 h drug exposure under 0% oxygen
WiDr (NTR+ve) = assay: Cell proliferation (sulphorhodamine B) IC50, NTR-transfected WiDr human colon cells; assay type: cell-based; conditions: for WiDr WT:NTR IC50 Ratio: 4 h, sensitivity ratio for NTR expression; for IC50: WiDr, 4 h drug exposure, growth 5 further days
in vivo = conditions: CD-1 nude, mouse, ip

| Compound | A549 (P450R+ve) 20% O2/anoxia IC50 Ratio (A549 (P450R+ve)) | IC50 (A549 (P450R+ve)) | WiDr WT:NTR IC50 Ratio (WiDr (NTR+ve)) | IC50 (WiDr (NTR+ve)) | MTD (in vivo) |
| --- | --- | --- | --- | --- | --- |
| O=C(NCCCO)c1cc(N(CCCl)CCCl)c([N+](=O)[O-])cc1[N+](=O)[O-] [IIa-3, N-(3-Hydroxypropyl)-5-[bis(2-Chloroethyl)Amino]-2,4-Dinitrobenzamide] | 23 | 54 µM | 36 | 47 µM | – |
| O=C(NCCO)c1cc(N(CCBr)CCBr)c([N+](=O)[O-])cc1[N+](=O)[O-] [IIa-7, N-(2-Hydroxyethyl)-5-[Bis(2-Bromoethyl)Amino]-2,4-Dinitrobenzamide] | 49 | 6.7 µM | 99 | 1.5 µM | – |
| O=C(NCCCO)c1cc(N(CCBr)CCBr)c([N+](=O)[O-])cc1[N+](=O)[O-] [IIa-8, N-(3-Hydroxypropyl)-5-[Bis(2-Bromoethyl)Amino]-2,4-Dinitrobenzamide] | 6.6 | 23 µM | 224 | 1.6 µM | – |
| O=C(NCCCCCO)c1cc(N(CCBr)CCBr)c([N+](=O)[O-])cc1[N+](=O)[O-] [IIa-10, N-(5-Hydroxypentyl)-5-[Bis(2-Bromoethyl)Amino]-2,4-Dinitrobenzamide] | – | – | 22 | 10 µM | – |
| O=C(NCCCCCCO)c1cc(N(CCBr)CCBr)c([N+](=O)[O-])cc1[N+](=O)[O-] [IIa-11, N-(6-Hydroxyhexyl)-5-[Bis(2-Bromoethyl)Amino]-2,4-Dinitrobenzamide] | – | – | 9 | 11 µM | – |
| O=C(NCCO)c1cc(N(CCI)CCI)c([N+](=O)[O-])cc1[N+](=O)[O-] [IIa-14, 5-[Bis(2-Iodoethyl)Amino]-N-(2-Hydroxyethyl)-2,4-Dinitrobenzamide] | 4.5 | 13 µM | 49 | 2.9 µM | – |
| O=C(NCCCCO)c1cc([N+](=O)[O-])cc([N+](=O)[O-])c1N(CCCl)CCCl [IIb-4, 2-[Bis(2-Chloroethyl)Amino]-N-(4-Hydroxybutyl)-3,5-Dinitrobenzamide] | – | – | 18 | 14 µM | – |
| O=C(NCCCCCO)c1cc([N+](=O)[O-])cc([N+](=O)[O-])c1N(CCCl)CCCl [IIb-5, 2-[Bis(2-Chloroethyl)Amino]-N-(5-Hydroxypentyl)-3,5-Dinitrobenzamide] | – | – | 19 | 13 µM | – |
| O=C(NCCCCO)c1cc([N+](=O)[O-])cc([N+](=O)[O-])c1N(CCBr)CCBr [IIb-9, 2-[Bis(2-Bromoethyl)Amino]-N-(4-Hydroxybutyl)-3,5-Dinitrobenzamide] | 20 | 1.4 µM | 5 | 0.9 µM | – |
| O=C(NCCCCCO)c1cc([N+](=O)[O-])cc([N+](=O)[O-])c1N(CCBr)CCBr [IIb-10, 2-[Bis(2-Bromoethyl)Amino]-N-(5-Hydroxypentyl)-3,5-Dinitrobenzamide] | 11 | 2.3 µM | 2 | 0.9 µM | – |
| O=C(NCCCCCCO)c1cc([N+](=O)[O-])cc([N+](=O)[O-])c1N(CCBr)CCBr [IIb-11, 2-[Bis(2-Bromoethyl)Amino]-N-(6-Hydroxyhexyl)-3,5-Dinitrobenzamide] | 4.5 | 6.6 µM | 2 | 1 µM | – |
| O=C(NCCO)c1c([N+](=O)[O-])ccc(N(CCBr)CCBr)c1[N+](=O)[O-] [IIc-7, 3-[Bis(2-Bromoethyl)Amino]-N-(2-Hydroxyethyl)-2,6-Dinitrobenzamide] | 40 | 3.9 µM | 46 | 10 µM | – |
| O=C(NCCCO)c1c([N+](=O)[O-])ccc(N(CCBr)CCBr)c1[N+](=O)[O-] [IIc-8, 3-[Bis(2-Bromoethyl)Amino]-N-(3-Hydroxypropyl)-2,6-Dinitrobenzamide] | 24 | 6.6 µM | 70 | 5 µM | – |
| O=C(NCCCCO)c1c([N+](=O)[O-])ccc(N(CCBr)CCBr)c1[N+](=O)[O-] [IIc-9, 3-[Bis(2-Bromoethyl)Amino]-N-(4-Hydroxybutyl)-2,6-Dinitrobenzamide] | 21 | 7.3 µM | 6 | 31 µM | – |
| O=C(NCCCOP(=O)(O)O)c1cc(N(CCBr)CCBr)c([N+](=O)[O-])cc1[N+](=O)[O-] [Ia-8P, 3-[[5-[Bis(2-Bromoethyl)Amino]-2,4-Dinitrobenzoyl]Amino]Propyl Dihydrogen Phosphate] | – | – | – | – | 1000 µmol/kg |
| O=C(NCCOP(=O)(O)O)c1cc([N+](=O)[O-])cc([N+](=O)[O-])c1N(CCCl)CCCl [Ib-2P, 2-[[2-[Bis(2-Chloroethyl)Amino]-3,5-Dinitrobenzoyl]Amino]Ethyl Dihydrogen Phosphate] | – | – | – | – | 237 µmol/kg |
| O=C(NCCCOP(=O)(O)O)c1c([N+](=O)[O-])ccc(N(CCBr)CCBr)c1[N+](=O)[O-] [Ic-8P, 3-({3-[Bis(2-Bromoethyl)Amino]-2,6-Dinitrobenzoyl}Amino)Propyl Dihydrogen Phosphate] | – | – | – | – | 562 µmol/kg |
